Laboratory results taken from patent publication US5288709A, “Erythromycin derivatives” (priority 1991, dated 1994).
In brackets after ≈: the same amount, converted by molar mass. Read-outs that look alike come from different tables or passages of the source.

How the values were obtained:
[1] = system: Staphylococcus aureus (NCTC 10649); test: In-vivo acute mouse protection assay; parameters: species or system Staphylococcus aureus; female Swiss albino mice; conditions: Staphylococcus aureus, NCTC10649, sc, 168 h; subcutaneous; dosed 1 and 5 h post-infection, observed 7 days; read-out: ED50
Procedure: (§1) An acute mouse protection test was conducted on ten mice with each of three concentrations of selected compounds of the invention. Each concentration was a four-fold dilution of the previous concentration. The initial concentration will vary with the microorganism with which the mouse is challenged.
(§2) The acute mouse protection test was conducted on female, Swiss albino mice, 18-20 grams in weight. […] To check the potency of the inoculum, a titration of the indicated test organism was carried out in control animals. The titration determines the LD50 for a particular microorganism. The treatment groups of animals were dosed orally, by gavage, or subcutaneously with the test compounds at 1 and 5 hours post-infection and observed for 7 days. The ED50 were calculated using the mortality data collected.

[2] = system: Streptococcus pneumoniae (ATCC 6303); test: In-vivo acute mouse protection assay; parameters: species or system Streptococcus pneumoniae; female Swiss albino mice; conditions: dosed 1 and 5 h post-infection, observed 7 days
Procedure: as §1, §2

[3] = system: Streptococcus pyogenes C-203; test: In-vivo acute mouse protection assay; parameters: species or system Streptococcus pyogenes; female Swiss albino mice; conditions: dosed 1 and 5 h post-infection, observed 7 days
Procedure: as §1, §2

[4] = system: Micrococcus luteus ATCC 9341; test: In-vitro antimicrobial activity primary screen (agar dilution MIC); assay type: cell-based; conditions: ATCC9341, BHI agar, 20-24 h, read-out: MIC
In short: (§3)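 Plates: BHI agar + serial aqueous compound dilutions (12). Inoculum: 1:100; 1:10 for Streptococcus/slow growers. Incubation: 35-37° C, 20-24 h. Readout: lowest concentration without growth beyond faint haze or scattered colonies.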

[5] = system: Enterococcus faecium ATCC 8043; test: as above; assay type: cell-based; conditions: Enterococcus faecium, ATCC8043, 24 h
In short: as §3

[6] = system: Streptococcus agalactiae CMX 508; test: as above; assay type: cell-based; conditions: CMX508, BHI agar, 20-24 h, read-out: MIC
In short: as §3

[7] = system: Staphylococcus aureus A5177; test: as above; assay type: cell-based; conditions: Staphylococcus aureus A5177; BHI agar, 20-24 h; read-out: MIC
In short: as §3

[8] = system: Streptococcus pyrogenes EES61; test: as above; assay type: cell-based; conditions: BHI agar, 20-24 h, read-out: MIC
In short: as §3

[9] = system: Staphylococcus aureus 45; test: as above; assay type: cell-based; conditions: BHI agar, 20-24 h, read-out: MIC
In short: as §3

[10] = system: Pseudomonas aeruginosa K799/WT; test: as above; assay type: cell-based; conditions: Pseudomonas aeruginosa K799/WT; BHI agar, 20-24 h; read-out: MIC
In short: as §3

[11] = system: Acinetobacter SP CMX 669; test: as above; assay type: cell-based; conditions: SPCMX669; Acinetobacter SP CMX 669; BHI agar, 20-24 h; read-out: MIC
In short: as §3

[12] = system: Staphylococcus aureus 45 RAR2; test: as above; assay type: cell-based; conditions: Staphylococcus aureus, 45RAR2, 24 h, BHI agar, 20-24 h
In short: as §3

[13] = system: Streptococcus pyrogenes 2548 INDUC; test: as above; assay type: cell-based; conditions: BHI agar, 20-24 h, read-out: MIC
In short: as §3

[14] = system: Escherichia coli JUHL; test: as above; assay type: cell-based; conditions: Escherichia coli, 24 h
In short: as §3

[15] = system: Providencia stuartii CMX 640; test: as above; assay type: cell-based; conditions: CMX640; Providencia stuartii CMX 640; BHI agar, 20-24 h; read-out: MIC
In short: as §3

[16] = system: Enterobacter aerogenes ATCC 13048; test: as above; assay type: cell-based; conditions: Klebsiella aerogenes, ATCC13048, 24 h, Enterobacter aerogenes ATCC 13048; BHI agar, 20-24 h
In short: as §3

[17] = system: Escherichia coli SS; test: as above; assay type: cell-based; conditions: BHI agar, 20-24 h, read-out: MIC
In short: as §3

[18] = system: Streptococcus bovis A5169; test: as above; assay type: cell-based; conditions: Streptococcus equinus, BHI agar, 20-24 h, read-out: MIC
In short: as §3

[19] = system: Escherichia coli H560; test: as above; assay type: cell-based; conditions: Escherichia coli H560; BHI agar, 20-24 h; read-out: MIC
In short: as §3

[20] = system: Pseudomonas aeruginosa K799/61; test: as above; assay type: cell-based; conditions: Pseudomonas aeruginosa K799/61; BHI agar, 20-24 h; read-out: MIC
In short: as §3

[21] = system: Escherichia coli DC-2; test: as above; assay type: cell-based; conditions: DC2; Escherichia coli DC-2; BHI agar, 20-24 h; read-out: MIC
In short: as §3

[22] = system: Pseudomonas cepacia 2961; test: as above; assay type: cell-based; conditions: Burkholderia cepacia, BHI agar, 20-24 h, read-out: MIC
In short: as §3

[23] = system: Staphylococcus aureus ATCC 6538P; test: as above; assay type: cell-based; conditions: Staphylococcus aureus, ATCC6538P, 24 h, BHI agar, 20-24 h
In short: as §3

[24] = system: Staphylococcus epidermidis 3519; test: as above; assay type: cell-based; conditions: BHI agar, 20-24 h, read-out: MIC
In short: as §3

[25] = system: Pseudomonas aeruginosa A5007; test: as above; assay type: cell-based; conditions: Pseudomonas aeruginosa A5007; BHI agar, 20-24 h; read-out: MIC
In short: as §3

[26] = system: Micrococcus luteus ATCC 4698; test: as above; assay type: cell-based; conditions: ATCC4698, BHI agar, 20-24 h, read-out: MIC
In short: as §3

[27] = system: Pseudomonas aeruginosa BMH10; test: as above; assay type: cell-based; conditions: Pseudomonas aeruginosa, BMH10, 24 h, BHI agar, 20-24 h
In short: as §3

[28] = system: Staphylococcus aureus CMX 553; test: as above; assay type: cell-based; conditions: Staphylococcus aureus, CMX553, 24 h, BHI agar, 20-24 h, read-out: MIC
In short: (§4)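 MIC is read as the lowest compound level yielding no growth, slight haze or sparse colonies on the inoculum spot, relative to a drug-free plate. Strains were replicator-inoculated (1:100 dilution) onto BHI agar plates holding twelve dilutions and held at 35-37 °C for 20-24 h, with erythromycin A as comparator.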

[29] = system: Staphylococcus aureus CMX 503A; test: as above; assay type: cell-based; conditions: Staphylococcus aureus, CMX503A, 24 h, BHI agar, 20-24 h, read-out: MIC
In short: as §4

[30] = system: Staphylococcus aureus CMX 686B; test: as above; assay type: cell-based; conditions: CMX686B, BHI agar, 20-24 h, read-out: MIC
In short: as §4

Work on CC[C@H]1OC(=O)[C@H](C)[C@@H](O[C@H]2C[C@@](C)(OC)[C@@H](N)[C@H](C)O2)[C@H](C)[C@@H](O[C@@H]2O[C@H](C)C[C@H](N(C)C)[C@H]2O)[C@](C)(O)C[C@@H](C)[C@@H]2O[C@@]1(C)[C@@H](O)[C@H]2C [Example 15, (4"S,9S,11S)-4"-Amino-9-deoxo-4",12-dideoxy-9,12-epoxyerythromycin A] yielded an ED50 [1] of 30.1 mg/kg, an ED50 ([2]; ATCC6303, 168 h, oral, read-out: ED50) of 37.3 mg/kg and an ED50 ([2]; ATCC6303, sc, 168 h, subcutaneous) of 4 mg/kg. The ED50 ([3]; C203, 168 h, oral) was 47.9 mg/kg, the ED50 ([3]; C203, sc, 168 h, subcutaneous) was 5 mg/kg and the MIC [4] was 0.01 µg/mL (≈ 0.0139 µM). It also gave an MIC [5] of 0.1 µg/mL (≈ 0.139 µM), an MIC [6] of 0.02 µg/mL (≈ 0.0279 µM) and an MIC [7] of 1.56 µg/mL (≈ 2.18 µM). It also gave an MIC [8] of 0.02 µg/mL (≈ 0.0279 µM), an MIC [9] of 0.39 µg/mL (≈ 0.544 µM) and an MIC [10] of 100 µg/mL (≈ 139 µM). It also gave an MIC [11] of 6.2 µg/mL (≈ 8.65 µM), an MIC [12] of 0.39 µg/mL (≈ 0.544 µM) and an MIC [13] of 6.2 µg/mL (≈ 8.65 µM). For the same molecule, the MIC [14] was 12.5 µg/mL (≈ 17.4 µM), the MIC [15] was > 100 µg/mL and the MIC [16] was 50 µg/mL (≈ 69.7 µM). The MIC [17] was 0.1 µg/mL (≈ 0.139 µM), the MIC [18] was 0.01 µg/mL (≈ 0.0139 µM) and the MIC [19] was 3.1 µg/mL (≈ 4.32 µM). For the same molecule, the MIC [20] was 0.78 µg/mL (≈ 1.09 µM), the MIC [21] was 6.2 µg/mL (≈ 8.65 µM) and the MIC [22] was > 100 µg/mL. For the same molecule, the MIC [23] was 0.39 µg/mL (≈ 0.544 µM), the MIC [24] was 0.2 µg/mL (≈ 0.279 µM) and the MIC [25] was > 100 µg/mL. It also gave an MIC [26] of 0.05 µg/mL (≈ 0.0697 µM), an MIC [27] of 50 µg/mL (≈ 69.7 µM) and an MIC [28] of 0.2 µg/mL (≈ 0.279 µM). For the same molecule, the MIC [29] was 0.39 µg/mL (≈ 0.544 µM) and the MIC [30] was 0.39 µg/mL (≈ 0.544 µM).
